Experimental data as given in patent US20090163517A1, “BENZOOXAZOLE, OXAZOLOPYRIDINE, BENZOTHIAZOLE AND THIAZOLOPYRIDINE DERIVATIVES” (priority 2005, published 2009).

Biological target: T1, human subtype 5 somatostatin receptor (Homo sapiens, UniProt P35346)
T1 construct: host or cells: CHO cell line, stably transfected; membranes prepared by sonication and centrifugation
Test: SSTR5 radioligand binding on membranes of CHO cells expressing the human receptor (125I-labeled 11-Tyr somatostatin-14 tracer)
Conditions: Ki calculated from IC50 by the Cheng-Prussoff equation, 0.05 nM 125I tracer, 1 hour at room temperature, read-out: SSTR 5 Ki
Procedure: A CHO cell line stably transfected with a plasmid encoding the human subtype 5 somatostatin receptor (GenBank accession number D16827) was obtained from Euroscreen. Cells were cultured and used for binding and functional assays.
Membranes of these cells were prepared by sonication in the presence of protease inhibitors and subsequent fractionating centrifugation. The protein concentration in the membrane preparation was determined using a commercial kit (BCA kit, Pierce, USA). Membranes were stored at −80° C. until use. After thawing, membranes were diluted in assay buffer (50 mM TRIS-HCl at pH 7.4, 5 mM MgCl2 and 0.20% BSA (bovine serum albumine)) and subjected to dounce homogenization.
For binding studies, 0.1 mL membrane suspension, corresponding to app. 6×10^−15 mol receptor, was incubated for 1 hour at room temperature with 0.05 nM ^125I-labeled tracer (11-Tyr somatostatin-14, Perkin-Elmer) and either test compounds in varying concentrations or, for the determination of non-specific binding, 0.001 mM non-labeled somatostatin-14 (Sigma-Aldrich, Buchs, Switzerland). The incubation was stopped by filtration through GF/B glassfiber filters (Unifilter, Perkin-Elmer) and washing with ice-cold wash buffer (50 mM Tris-HCl at pH 7.4). The bound radioactivity was measured after application of a scintillation cocktail (Microscint 40, Perkin-Elmer) and expressed as disintegrations per minute (dpm).
The receptor concentration was determined in a prior saturation experiment where a fixed, arbitrary amount of membranes was incubated with a concentration range of radio-labeled tracer. This allows estimating the total number of specific binding sites per amount of protein (i.e., Bmax), typically between 1 and 5 pmol/mg.
The concentration of the test compound required to result in half maximal inhibition of binding of the radio-labeled tracer (IC50) was estimated from a concentration-versus-dpm graph. The binding affinity (Ki) was calculated from the IC50 by applying the Cheng-Prussoff equation for single binding sites.

T1 sequence (P35346 whole entry): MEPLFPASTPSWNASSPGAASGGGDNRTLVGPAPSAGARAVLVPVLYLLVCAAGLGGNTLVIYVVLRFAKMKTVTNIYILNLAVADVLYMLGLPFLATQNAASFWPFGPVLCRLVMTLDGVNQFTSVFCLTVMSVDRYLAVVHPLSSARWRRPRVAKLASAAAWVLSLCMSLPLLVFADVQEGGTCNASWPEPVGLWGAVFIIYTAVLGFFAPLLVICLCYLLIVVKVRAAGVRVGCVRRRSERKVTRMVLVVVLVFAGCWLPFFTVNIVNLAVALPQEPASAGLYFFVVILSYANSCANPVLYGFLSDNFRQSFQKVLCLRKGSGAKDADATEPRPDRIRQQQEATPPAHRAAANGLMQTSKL

Structure (SMILES)	Ki
CCOc1cc(CN2CCC(Nc3nc4c(N)cccc4o3)CC2)cc(OCC)c1-n1cccc1 [Example 23, N^2-[1-(3,5-Diethoxy-4-pyrrol-1-yl-benzyl)-piperidin-4-yl]-benzooxazole-2,4-diamine]	6 nM
CCOc1cc(CN2CCC(Nc3nc4c([N+](=O)[O-])cccc4o3)CC2)ccc1F [Example 73, [1-(3-Ethoxy-4-fluoro-benzyl)-piperidin-4-yl]-(4-nitro-benzooxazol-2-yl)-amine]	223 nM
CCOc1cc(CN2CCC(Nc3nc4ccc(C(=O)O)cc4o3)CC2)cc(OCC)c1N [Example 71, 2-[1-(4-Amino-3,5-diethoxy-benzyl)-piperidin-4-ylamino]-benzooxazole-6-carboxylic Acid]	44 nM
